Here are results for two compounds from ChEMBL document CHEMBL5537127, “Design and synthesis of novel hederagonic acid analogs as potent anti-inflammatory compounds capable of protecting against LPS-induced acute lung injury” (Eur J Med Chem, 2024).

Molecules are shown by their SMILES. Active and inactive are the calls of the source. The rule behind the calls is not given here.

The subject of series [1] is RAW264.7. The experiment in a line: Anti-inflammatory activity against LPS-induced mouse RAW264.7 cells assessed as decrease in TBK1 phosphorylation at 1.25 to 5 uM by Western blotting analysis. The class given is functional, cell-based. Particulars: dose 1.25-5 µM.
Series [2] deals with RAW264.7. The experiment in a line: Anti-inflammatory activity against LPS-induced mouse RAW264.7 cells assessed as decrease in p65 phosphorylation at 1.25 to 5 uM by Western blotting analysis. The class given is functional, cell-based. Particulars: dose 1.25-5 µM.
In series [3] the target is T1, Stimulator of interferon genes protein (Mus musculus) (UniProt Q3TBT3).
T1 sequence (whole entry): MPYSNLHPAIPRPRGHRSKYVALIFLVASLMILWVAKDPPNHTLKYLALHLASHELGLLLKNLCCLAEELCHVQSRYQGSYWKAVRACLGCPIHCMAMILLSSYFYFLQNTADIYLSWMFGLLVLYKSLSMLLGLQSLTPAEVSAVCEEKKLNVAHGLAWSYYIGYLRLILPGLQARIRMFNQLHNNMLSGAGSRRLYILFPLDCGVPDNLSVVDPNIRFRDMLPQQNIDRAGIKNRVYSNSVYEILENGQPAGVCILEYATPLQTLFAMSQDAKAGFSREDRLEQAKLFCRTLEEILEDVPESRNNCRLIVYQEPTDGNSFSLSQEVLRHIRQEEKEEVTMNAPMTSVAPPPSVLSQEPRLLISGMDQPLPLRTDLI
The experiment in a line: Binding affinity to STING in mouse RAW264.7 cells assessed as reduction in protein degradation at 40 uM at 40 to 61 degreeC incubated for 12 hrs by thermal shift assay. The class given is cell-based.

The subject of series [4] is Mus musculus. The experiment in a line: Anti-inflammatory activity against LPS-stimulated BALB/c mouse acute lung injury model assessed as decrease in MDA level in lung tissue at 1.25 to 5 mg/kg, po administered for 3 days by colorimetric method. The class given is functional, organism-based. Particulars: dose 1.25-5 mg/kg, time 3.0 day.
For series [5], the system named is Mus musculus. Briefly: Anti-inflammatory activity against LPS-stimulated BALB/c mouse assessed as decrease in TNF-alpha level in BALF administered for 3 days by Western blotting analysis. The following applies: dose 1.25-5 mg/kg, route po, time 3.0 day. It is filed as functional, organism-based.
The test system of series [6] is Mus musculus. The experiment in a line: Anti-inflammatory activity against LPS-stimulated BALB/c mouse acute lung injury model assessed as increase in SOD level in lung tissue at 1.25 to 5 mg/kg, po administered for 3 days by colorimetric method. It is filed as functional, organism-based. The following applies: dose 1.25-5 mg/kg, time 3.0 day.
Series [7] concerns Mus musculus. The experiment in a line: Anti-inflammatory activity against LPS-stimulated BALB/c mouse assessed as decrease in IFN-beta level in BALF administered for 3 days by Western blotting analysis. The class given is functional, organism-based. Particulars: dose 1.25-5 mg/kg, route po, time 3.0 day.
The subject of series [8] is RAW264.7. The experiment in a line: Anti-inflammatory activity against LPS-induced mouse RAW264.7 cells assessed as inhibition of NO production at 10 uM preincubated for 2 hrs followed by LPS addition and measured after 24 hrs by Griess reagent-based microplate reader analysis relative to control. It is filed as functional. On the set-up: scale not given: the % may be the effect or the level left. The following applies: time 26 hrs.

Series [9] concerns RAW264.7. The experiment in a line: Anti-inflammatory activity against LPS-induced mouse RAW264.7 cells assessed as inhibition of p65 nuclear translocation at 5 uM preincubated for 2 hrs followed by LPS addition and measured after 2 hrs by FITC/DAPI staining based laser confocal microscopy analysis. Particulars: time 4.0 hrs. The class given is functional, cell-based.
Series [10] has as its system RAW264.7. Briefly: Anti-inflammatory activity against LPS-induced mouse RAW264.7 cells assessed as decrease in TNF-alpha expression at 1.25 to 5 uM preincubated for 2 hrs followed by LPS addition and measured after 12 hrs by ELISA. The class given is functional, cell-based. Particulars: dose 1.25-5 µM, time 14.0 hrs.
Series [11] has as its system RAW264.7. The experiment in a line: Anti-inflammatory activity against LPS-induced mouse RAW264.7 cells assessed as inhibition of IRF3 nuclear translocation at 5 uM preincubated for 2 hrs followed by LPS addition and measured after 2 hrs by FITC/DAPI staining based laser confocal microscopy analysis. The class given is functional, cell-based. The following applies: time 4.0 hrs.

In series [12] the test system is Mus musculus. Briefly: Anti-inflammatory activity against LPS-stimulated BALB/c mouse acute lung injury model assessed as decrease in IRF3 phosphorylation at 1.25 to 5 mg/kg, po administered for 3 days by Western blotting analysis. It is filed as functional, organism-based. Particulars: dose 1.25-5 mg/kg, time 3.0 day.
Series [13] deals with RAW264.7. The experiment in a line: Anti-inflammatory activity against LPS-induced mouse RAW264.7 cells assessed as decrease in IFN-beta expression at 1.25 to 5 uM preincubated for 2 hrs followed by LPS addition and measured after 12 hrs by ELISA. The class given is functional, cell-based. The following applies: dose 1.25-5 µM, time 14.0 hrs.
Series [14] deals with T1, Stimulator of interferon genes protein (Mus musculus). The experiment in a line: Binding affinity to STING in mouse RAW264.7 cells assessed as inhibition of protein degradation at 4 to 40 uM at 49 degreeC incubated for 12 hrs by thermal shift assay. It is filed as cell-based. Particulars: dose 4-40 µM.
The subject of series [15] is RAW264.7. Briefly: Anti-inflammatory activity against LPS-induced mouse RAW264.7 cells assessed as decrease in STING protein level at 1.25 to 5 uM by Western blotting analysis. The class given is functional, cell-based. The following applies: dose 1.25-5 µM.
In series [16] the test system is RAW264.7. The experiment in a line: Anti-inflammatory activity against LPS-induced mouse RAW264.7 cells assessed as decrease in IRF3 phosphorylation at 1.25 to 5 uM by Western blotting analysis. The class given is functional, cell-based. The following applies: dose 1.25-5 µM.
Series [17] concerns RAW264.7. The experiment in a line: Anti-inflammatory activity against LPS-induced mouse RAW264.7 cells assessed as decrease in IL-6 expression at 1.25 to 5 uM preincubated for 2 hrs followed by LPS addition and measured after 12 hrs by ELISA. The class given is functional, cell-based. The following applies: dose 1.25-5 µM, time 14.0 hrs.
Series [18] has as its system Mus musculus. Briefly: Anti-inflammatory activity against LPS-stimulated BALB/c mouse assessed as decrease in IL-6 level in BALF administered for 3 days by Western blotting analysis. The class given is functional, organism-based. Particulars: dose 1.25-5 mg/kg, route po, time 3.0 day.
The test system of series [19] is RAW264.7. Briefly: Anti-inflammatory activity against LPS-induced mouse RAW264.7 cells assessed as decrease in IkappaB phosphorylation at 1.25 to 5 uM by Western blotting analysis. The class given is functional, cell-based. The following applies: dose 1.25-5 µM.
Series [20] has as its system Mus musculus. The experiment in a line: Anti-inflammatory activity against LPS-stimulated BALB/c mouse acute lung injury model assessed as decrease in STING expression at 1.25 to 5 mg/kg, po administered for 3 days by Western blotting analysis. It is filed as functional, organism-based. Particulars: dose 1.25-5 mg/kg, time 3.0 day.
For series [21], the system named is Mus musculus. The experiment in a line: Anti-inflammatory activity against LPS-stimulated BALB/c mouse acute lung injury model assessed as decrease in pulmonary edema in lung tissue at 1.25 to 5 mg/kg, po administered for 3 days by hematoxylin and eosin staining based analysis. The following applies: dose 1.25-5 mg/kg, time 3.0 day. It is filed as functional, organism-based.

The subject of series [22] is RAW264.7. Briefly: Anti-inflammatory activity against LPS-induced mouse RAW264.7 cells assessed as inhibition of NO production at 20 uM preincubated for 2 hrs followed by LPS addition and measured after 24 hrs by Griess reagent-based microplate reader analysis relative to control. On the set-up: scale not given: the % may be the effect or the level left. It is filed as functional. Particulars: time 26 hrs.

Series [23] in a line: Cytotoxicity against mouse RAW264.7 cells assessed as cell viability at 40 uM incubated for 24 hrs by MTT assay relative to control. It is filed as toxicity, cell-based. Particulars: read-out: Activity.
Series [24] deals with Mus musculus. The experiment in a line: Anti-inflammatory activity against LPS-stimulated BALB/c mouse acute lung injury model assessed as decrease in IkappaB phosphorylation at 1.25 to 5 mg/kg, po administered for 3 days by Western blotting analysis. Particulars: dose 1.25-5 mg/kg, time 3.0 day. The class given is functional, organism-based.
The subject of series [25] is Mus musculus. The experiment in a line: Anti-inflammatory activity against LPS-stimulated BALB/c mouse acute lung injury model assessed as decrease in TBK1 phosphorylation at 1.25 to 5 mg/kg, po administered for 3 days by Western blotting analysis. The class given is functional, organism-based. The following applies: dose 1.25-5 mg/kg, time 3.0 day.
Series [26] deals with Mus musculus. The experiment in a line: Anti-inflammatory activity against LPS-stimulated BALB/c mouse acute lung injury model assessed as decrease in p65 phosphorylation at 1.25 to 5 mg/kg, po administered for 3 days by Western blotting analysis. It is filed as functional, organism-based. The following applies: dose 1.25-5 mg/kg, time 3.0 day.
The target of series [27] is T1, Stimulator of interferon genes protein (Mus musculus). The experiment in a line: Binding affinity to STING in mouse RAW264.7 cells assessed as protein stabilization at 49 degreeC incubated for 12 hrs by thermal shift assay. The class given is cell-based. The following applies: dose 0.4-40 µM.
For series [28], the system named is Mus musculus. Briefly: Antiinflammatory activity against TPA-induced mouse ear edema model assessed as reduction in ear edema at 40 mg/kg, po administered for 7 consecutive days. The class given is functional. Details: scale not given: the % may be the effect or the level left. Particulars: time 7 day.

In the case of `CC1(C)CC[C@]2(C(=O)OCc3ccccc3)CC[C@]3(C)C(=CC[C@@H]4[C@@]5(C)CCC(=O)[C@@](C)(COC(=O)CCCNC(=O)CCCC[C@@H]6CCSS6)[C@@H]5CC[C@]43C)[C@@H]2C1`, the outcome in [1], in series [2], in series [3], in [4], in series [6] and in series [9] was Active. Besides, the outcome in series [10], in series [11], in [12], in series [13], in series [14] and in [15] was Active. The outcome in [16], in [17], in series [19], in series [20], in series [21] and in series [24] was Active. The result in series [25] and in series [26] was Active. Moreover, the Activity result in series [5] is “Dose-Dependent Effect”; in series [7], “Dose-Dependent Effect”; in series [8] it was 69.78%; in [18] it was “Dose-Dependent Effect”; in series [22], 81.7%; in series [27], “Dose-Dependent Effect”. In [23], the viability at 24 h, 40 µM came to 100%.

For the compound `CC1(C)C(=O)/C(=C\c2cnccn2)C[C@]2(C)[C@H]3CC=C4[C@@H]5C[C@@](C)(C(=O)O)CC[C@]5(C)CC[C@@]4(C)[C@]3(C)CC[C@@H]12`, the Activity in series [28] stood at 59.69%.
